What was measured:
Assay type in all cases: functional
[1] = system: Pyricularia grisea; experiment: Fungicidal activity against Magnaporthe grisea in rice plant assessed as prevention from rice blast disease measured as lesions under greenhouse at > 200 ppm for 8 days by foliar spray compound treated before inoculation
[2] = system: Pyricularia grisea; experiment: Fungicidal activity against Magnaporthe grisea in rice plant assessed as prevention from rice blast disease measured as lesions under greenhouse at > 200 ppm for 8 days by soil drench compound treated before inoculation
[3] = system: Pyricularia grisea; experiment: Fungicidal activity against Magnaporthe grisea in rice plant assessed as prevention from rice blast disease measured as lesions under greenhouse at 200 ppm for 8 days by foliar spray compound treated before inoculation
[4] = system: Pyricularia grisea; experiment: Fungicidal activity against Magnaporthe grisea in rice plant assessed as prevention from rice blast disease measured as lesions under greenhouse at 50 ppm for 8 days by soil drench compound treated before inoculation
[5] = system: Pyricularia grisea; experiment: Fungicidal activity against Magnaporthe grisea in rice plant assessed as prevention from rice blast disease measured as lesions under greenhouse at 200 ppm for 8 days by soil drench compound treated before inoculation
[6] = system: Pyricularia grisea; experiment: Fungicidal activity against Magnaporthe grisea in rice plant assessed as prevention from rice blast disease measured as lesions under greenhouse at 50 ppm for 8 days by foliar spray compound treated before inoculation
[7] = system: Pyricularia grisea; experiment: Fungicidal activity against Magnaporthe grisea in rice plant assessed as prevention from rice blast disease measured as lesions under greenhouse at 12.5 ppm for 8 days by soil drench compound treated before inoculation
[8] = system: Pyricularia grisea; experiment: Fungicidal activity against Magnaporthe grisea in rice plant assessed as prevention from rice blast disease measured as lesions under greenhouse at 3.1 ppm for 8 days by foliar spray compound treated before inoculation
[9] = system: Pyricularia grisea; experiment: Fungicidal activity against Magnaporthe grisea in rice plant assessed as rice blast disease measured as damage under greenhouse by foliar spray for 8 days compound treated before inoculation; conditions: 192 h
[10] = system: Pyricularia grisea; experiment: Fungicidal activity against Magnaporthe grisea in rice plant assessed as rice blast disease measured as damage under greenhouse at 1.6 ppm for 8 days by foliar spray compound treated before inoculation
[11] = system: Pyricularia grisea; experiment: Fungicidal activity against Magnaporthe grisea in rice plant assessed as rice blast disease measured as damage under greenhouse at 6.3 ppm for 8 days by foliar spray compound treated before inoculation
[12] = system: Pyricularia grisea; experiment: Fungicidal activity against Magnaporthe grisea in rice plant assessed as rice blast disease measured as damage under greenhouse at 25 ppm for 8 days by foliar spray compound treated before inoculation
[13] = system: Pyricularia grisea; experiment: Fungicidal activity against Magnaporthe grisea in rice plant assessed as rice blast disease measured as damage under greenhouse at 0.4 ppm for 8 days by foliar spray compound treated before inoculation

SMILES	Activity [1]	Activity [2]	Activity [3]	other results
CC(C)=C(C#N)C(=O)NC(C)c1ccc(Cl)cc1 (centres undefined)	<=10%	<=10%	–	–
CC(NC(=O)C1(C#N)CCCC1)c1ccc(Cl)cc1 (centres undefined)	<=10%	<=10%	–	–
CC(NC(=O)C1(C#N)CCCCC1)c1ccc(Cl)cc1 (centres undefined)	<=10%	<=10%	–	–
CCC(C#N)(CC)C(=O)NC(C)c1ccc(Cl)cc1 (centres undefined)	<=10%	<=10%	–	–
CC(NC(=O)C(C)(C#N)C(C)(C)C)c1ccc(Cl)cc1 (centres undefined)	–	<=10%	<=10%	–
CC(NC(=O)C(Br)(C#N)C(C)(C)C)c1ccc(Cl)cc1 (centres undefined)	–	–	<=10%	Activity [4]: <=10%
CC(NC(=O)C(C)(C#N)C(C)C)c1ccc(Cl)cc1 (centres undefined)	<=10%	<=10%	–	–
CC(NC(=O)C(C)(C)C#N)c1ccc(Cl)cc1 (centres undefined)	<=10%	<=10%	–	–
CC(NC(=O)C(C#N)c1ccccc1)c1ccc(Cl)cc1 (centres undefined)	<=10%	<=10%	–	–
CC(NC(=O)C(C#N)C1CCCC1)c1ccc(Cl)cc1 (centres undefined)	–	–	–	Activity [5]: <=10%; Activity [6]: <=10%
CC(NC(=O)C(C#N)C1CCCCC1)c1ccc(Cl)cc1 (centres undefined)	–	<=10%	<=10%	–
C#CC(C)(C)C(C#N)C(=O)NC(C)c1ccc(Cl)cc1 (centres undefined)	–	–	–	Activity [7]: <=10%; Activity [8]: <=10%
C=CC(C)(C)C(C#N)C(=O)NC(C)c1ccc(Cl)cc1 (centres undefined)	–	–	–	Activity [7]: <=10%; Activity [8]: <=10%
CC(NC(=O)C(C#N)CC(C)(C)C)c1ccc(Cl)cc1 (centres undefined)	–	–	<=10%	Activity [4]: <=10%
CCC(CC)C(C#N)C(=O)NC(C)c1ccc(Cl)cc1 (centres undefined)	–	–	–	Activity [8]: <=10%; Activity [4]: <=10%
CCC(C)C(C#N)C(=O)NC(C)c1ccc(Cl)cc1 (centres undefined)	–	–	–	Activity [4]: <=10%; Activity [6]: <=10%
CC(C)CC(C#N)C(=O)NC(C)c1ccc(Cl)cc1 (centres undefined)	–	–	<=10%	Activity [5]: <=10%

SMILES	Activity [1]	Activity [2]	Activity [3]	other results
CCCCC(C#N)C(=O)NC(C)c1ccc(Cl)cc1 (centres undefined)	–	–	–	Activity [5]: <=10%; Activity [6]: <=10%
CC(NC(=O)C(C#N)C(C)C)c1ccc(Cl)cc1 (centres undefined)	–	–	<=10%	Activity [4]: <=10%
CC(C#N)C(=O)NC(C)c1ccc(Cl)cc1 (centres undefined)	<=10%	<=10%	–	–
CC(NC(=O)C(C(C)(C)C)S(C)(=O)=O)c1ccc(Cl)cc1 (centres undefined)	–	<=10%	<=10%	–
CC(NC(=O)C(O)C(C)(C)C)c1ccc(Cl)cc1 (centres undefined)	<=10%	<=10%	<=10%	–
CC(NC(=O)C([S+](C)[O-])C(C)(C)C)c1ccc(Cl)cc1 (centres undefined)	<=10%	<=10%	–	–
COC(C(=O)NC(C)c1ccc(Cl)cc1)C(C)(C)C (centres undefined)	<=10%	<=10%	<=10%	–
C#CC(C(=O)NC(C)c1ccc(Cl)cc1)C(C)(C)C (centres undefined)	–	<=10%	<=10%	–
CC(NC(=O)C(C#N)C(C)(C)C)c1ccc(Cl)cc1 (centres undefined)	–	–	–	Activity [7]: <=10%; Activity [8]: <=10%
CC(NC(=O)C(F)C(C)(C)C)c1ccc(Cl)cc1 (centres undefined)	<=10%	<=10%	–	–
CSC(C(=O)NC(C)c1ccc(Cl)cc1)C(C)(C)C (centres undefined)	–	<=10%	<=10%	–
CC(NC(=O)C(Br)C(C)(C)C)c1ccc(Cl)cc1 (centres undefined)	–	–	–	Activity [5]: <=10%
CC(C)(C)C(C#N)C(=O)NCCc1ccc(Cl)cc1 (centres undefined)	–	<=10%	<=10%	–
CC(Cc1ccc(Cl)cc1)NC(=O)C(C#N)C(C)(C)C (centres undefined)	–	<=10%	<=10%	–
COC(NC(=O)C(C#N)C(C)(C)C)c1ccc(Cl)cc1 (centres undefined)	<=10%	<=10%	–	–
C[C@@H](NC(=O)C(C#N)C(C)(C)C)c1ccc(Cl)cc1Cl (mixture of isomers) [DICLOCYMET]	–	–	–	MIC [9]: 0.08 µg/mL; Activity [10]: 3%; Activity [11]: 4%; Activity [12]: 4%; Activity [13]: 2%
O=C1OCc2c(Cl)c(Cl)c(Cl)c(Cl)c21 [4,5,6,7-TETRACHLOROPHTHALIDE]	–	–	–	Activity [10]: 0%; Activity [11]: 1%; Activity [12]: 4%; Activity [13]: 0%

Reference: ChEMBL document CHEMBL3045432, “Synthesis and Fungicidal Activity of -Cyanoacetamide Derivatives: Discovery of a New Rice Blast Fungicide, Diclocymet (S-2900)” (2002)
